According to US8580852B2, “2-oxamide inhibitors of phospholipase A2 activity and cellular arachidonate release based on dipeptides and pseudopeptides” (The Regents of the University of California, priority 2009, dated 2013):
Where “and” joins values, the source holds several entries; their conditions need not be identical. Identical values can stand only once. Like-named read-outs stand apart in the source and are kept apart here.

How the values were obtained:
GV sPLA2 = biological target: T1, GV sPLA2 (Homo sapiens, UniProt P39877); assay: In vitro PLA2 mixed micellar assay (modified Dole assay), GV sPLA2; assay type: biochemical; details: at 0.091 mole fraction of inhibitor, n = 3
T1 sequence (P39877 21-138): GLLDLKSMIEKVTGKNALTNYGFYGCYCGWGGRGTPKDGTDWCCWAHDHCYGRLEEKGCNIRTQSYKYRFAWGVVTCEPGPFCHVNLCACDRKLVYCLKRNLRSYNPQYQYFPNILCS
Procedure: (§1) All the inhibitors synthesized in this work were tested for inhibition of GIVA cPLA2, GVIA iPLA2 and GV sPLA2 using mixed micellar assays. Details for the assays have been published previously. The results of the inhibition are presented in Table 1 using either percent inhibition or XI(50) values. Initially, the percent inhibition of each PLA2 at 0.091 mole fraction of inhibitor was determined. XI(50) values were estimated when the percent inhibition was higher than 90%. The XI(50) is the mole fraction of the inhibitor in the total substrate interface required to inhibit the enzyme by 50%. Data for the reference 2-oxoamide inhibitors AX006 and AX048 are included in Table 1 for comparison. Phospholipase A2 activity was determined using the previously described modified Dole assay with buffer and substrate conditions optimized for each enzyme as described previously: (i) GIVA cPLA2 substrate mixed-micelles were composed of 400 μM Triton […]-labeled PAPC, and 3 μM PIP2 in buffer containing 100 mM HEPES pH 7.5, 90 μM CaCl2, 2 mM DTT and 0.1 mg/ml BSA; (ii) GVI iPLA2 substrate mixed-micelles were composed of either (a) 400 μM Triton X-100, 99 μM DPPC, and 1.5 μM ^14C-labeled DPPC in buffer containing 200 mM HEPES pH 7.0, 1 mM ATP, 2 mM DTT and 0.1 mg/ml BSA or (b) 400 μM Triton X-100, 98.3 μM PAPC, and 1.7 μM ^14C-labeled PAPC in buffer containing 100 mM HEPES pH 7.5, 2 mM ATP and 4 mM DTT; and (iii) GV sPLA2 substrate mixed-micelles were composed of 400 μM Triton X-100, 99 μM DPPC, and 1.5 μM ^14C-labeled DPPC in buffer containing 50 mM Tris pH 8.0 and 5 mM CaCl2. Initial screening of compounds at 0.091 mole fraction inhibitor in mixed-micelles was carried out. Compounds displaying 25% or less inhibition had no inhibitory affect (designated N.D.). The average percent inhibition (and standard error, n=3) for compounds displaying more than 25% and less than 90% enzyme inhibition is reported herein. If the percent inhibition was greater than 90%, then its XI(50) was determined by plotting percent inhibition vs. inhibitor molar fraction (7 points; typically 0.005 to 0.091 mole fraction). Inhibition curves were modeled in Graphpad Prism using either a linear (x, y intercept=0) or non-linear regression (one-site binding model-hyperbola, BMAX=100) to calculate the reported XI(50) and associated error values.

GIVA cPLA2 [1] = biological target: T2, GIVA cPLA2 (Homo sapiens, UniProt P47712); assay: In vitro PLA2 mixed micellar assay (modified Dole assay), GIVA cPLA2; assay type: biochemical; details: for GIVA cPLA2 X1(50): mixed micelles, mole fraction of inhibitor in total substrate interface required to inhibit the enzyme by 50%; for GIVA cPLA2 % inhibition: at 0.091 mole fraction of inhibitor, n = 3
T2 sequence (P47712 1-749): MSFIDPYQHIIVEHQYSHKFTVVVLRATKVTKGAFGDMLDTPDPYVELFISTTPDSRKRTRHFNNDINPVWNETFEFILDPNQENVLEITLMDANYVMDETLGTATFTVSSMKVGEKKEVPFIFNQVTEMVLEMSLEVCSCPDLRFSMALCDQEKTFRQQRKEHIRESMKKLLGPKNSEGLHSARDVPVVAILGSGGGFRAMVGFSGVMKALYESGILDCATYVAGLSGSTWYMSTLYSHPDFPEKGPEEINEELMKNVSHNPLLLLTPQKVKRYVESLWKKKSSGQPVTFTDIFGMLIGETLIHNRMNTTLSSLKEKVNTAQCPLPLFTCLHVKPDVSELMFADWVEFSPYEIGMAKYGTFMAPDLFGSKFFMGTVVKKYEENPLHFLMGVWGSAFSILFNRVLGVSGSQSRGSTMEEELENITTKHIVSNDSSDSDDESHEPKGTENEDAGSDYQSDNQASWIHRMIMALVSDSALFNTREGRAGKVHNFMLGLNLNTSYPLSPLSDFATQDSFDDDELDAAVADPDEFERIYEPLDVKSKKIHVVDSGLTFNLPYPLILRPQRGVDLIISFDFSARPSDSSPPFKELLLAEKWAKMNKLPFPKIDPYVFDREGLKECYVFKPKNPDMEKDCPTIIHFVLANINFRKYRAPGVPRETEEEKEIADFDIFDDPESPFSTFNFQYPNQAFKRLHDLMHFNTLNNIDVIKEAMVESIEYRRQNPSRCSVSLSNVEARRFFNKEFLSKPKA
Procedure: as §1

RAW 264.7 macrophages = assay: Inhibition of Kdo2-Lipid A stimulated arachidonic acid release; assay type: cell-based; details: for inhibition at 25 µM / IC50: Mus musculus; for inhibition at 25 µM: RAW264.7, read-out: AA Release Inhibition (%); for Effect on AA release (in words): 25 μM inhibitor; for Effect on AA release (in words) / IC50: Kdo2-Lipid A; for IC50: RAW264.7, RAW 264.7 cells, half maximal of the maximum inhibition observed
Description: Arachidonic acid (AA) is the ideal metabolic indicator of GIVA cPLA2 activity, since it is the product of GIVA cPLA2-mediated catalysis. In addition to some of the new 2-oxoamides based on dipeptides and pseudodipeptides that were synthesized in this work, a series of potent 2-oxoamide in vitro inhibitors of GIVA cPLA2, previously reported by us, were further tested in a cellular ex vivo system to investigate whether they reduced cellular AA production. For this purpose, RAW 264.7 macrophages were preincubated with 25 μM concentrations of the inhibitor prior to treatment of the cells with Kdo2-Lipid A. Subsequently, AA release was quantitated from the supernatants.
RAW 264.7 macrophages were maintained in a humidified atmosphere at 37° C. with 5% CO2, as described elsewhere.^36 The cells were cultured in DMEM media that was supplemented with 10% fetal bovine serum, 2 mM glutamine, 100 units/mL penicillin, 100 μg/ml streptomycin, and non-essential amino acids. The cells were plated at a confluency of 2×10^6 cells per well in 6 well tissue culture plates and allowed to adhere overnight. Inhibitors were added to the medium 30 min before Kdo2-Lipid A was added and the supernatants were collected at 1 hour following stimulation. Subsequently, AA was extracted from the supernatants and quantitated by HPLC-MS, as described elsewhere.^36, 37 AA release levels were normalized to pmol AA release per million cells though DNA quantitation using the Broad Range DNA Quant-Kit (Invitrogen). IC50 values were determined by estimating the concentration of inhibitor required for half maximal inhibition of the maximum inhibition observed with a given inhibitor.

GIVA cPLA2 [2] = biological target: T2, GIVA cPLA2; details: in vitro; inhibitors previously reported; also inhibit GVIA iPLA2 and GV sPLA2; cited from earlier work
[3] = 25 μM inhibitor preincubated, Kdo2-Lipid A stimulation, RAW 264.7 macrophages
[4] = read-out: IC50 for the inhibition of arachidonic acid release (text)
[5] = read-out: IC50 for the inhibition of arachidonic acid release

CCCCCCCCCCCCCCC(=O)C(=O)N[C@@H](CCCC)C(=O)NCC(=O)OC [Compound 4a, (S)-Methyl 2-(2-(2-oxohexadecanamido)hexanamido)acetate]
GV sPLA2 % inhibition (GV sPLA2): 65%
GIVA cPLA2 X1(50) (GIVA cPLA2 [1]): 0.021 ± 0.009 mole fraction
melting point: 65 to 67 °C

CCCCCCCCCCCCCCC(=O)C(=O)N[C@H](C(=O)NCC(=O)OC)C(C)C [Compound 4b, (S)-Methyl-2-(3-methyl-2-(2-oxohexadecanamido)butanamido)-acetate]
inhibition at 0.091 mole fraction (GV sPLA2): < 25%
GIVA cPLA2 % inhibition (GIVA cPLA2 [1]): 25%
melting point: 118 to 119 °C

CCCCCCCCCCCCCCC(=O)C(=O)N[C@@H](CCCC)C(=O)NCC(=O)OCC [Compound 4c, (S)-Ethyl 2-(2-(2-oxohexadecanamido)hexanamido)acetate]
GV sPLA2 % inhibition (GV sPLA2): 63%
GIVA cPLA2 % inhibition (GIVA cPLA2 [1]): 73%
melting point: 63 to 65 °C

CCCCCCCCCCCCCCC(=O)C(=O)N[C@@H](CCCC)C(=O)NCC(=O)OC(C)(C)C [Compound 8a, (S)-tert-Butyl 2-(2-(2-oxohexadecanamido)hexanamido)acetate]
GV sPLA2 % inhibition (GV sPLA2): 59%
GIVA cPLA2 % inhibition (GIVA cPLA2 [1]): 72%
melting point: 38 to 39 °C

CCCCCCCCCCCCCCC(=O)C(=O)N[C@H](C(=O)NCC(=O)OC(C)(C)C)C(C)C [Compound 8b, (S)-tert-Butyl-2-(3-methyl-2-(2-oxohexadecanamido)butanamido)-acetate]
AA Release Inhibition (%) (RAW 264.7 macrophages; [3]): 30 ± 2%
inhibition at 25 µM (RAW 264.7 macrophages; [3]): 30%
GIVA cPLA2 X1(50) (GIVA cPLA2 [1]): 0.028 ± 0.015 mole fraction
melting point: 58 to 61 °C

CCCCCCCCCCCCCCC(=O)C(=O)N[C@@H](CCCC)C(=O)NCC(=O)O [Compound 9a, (S)-2-(2-(2-Oxohexadecanamido)hexanamido)acetic Acid]
inhibition at 0.091 mole fraction (GV sPLA2): < 25%
GIVA cPLA2 X1(50) (GIVA cPLA2 [1]): 0.035 ± 0.014 mole fraction

CCCCCCCCCCCCCCC(=O)C(=O)N[C@H](C(=O)NCC(=O)O)C(C)C [Compound 9b, (S)-2-(3-Methyl-2-(2-oxohexadecanamido)butanamido)acetic Acid]
inhibition at 0.091 mole fraction (GV sPLA2): < 25%
GIVA cPLA2 X1(50) (GIVA cPLA2 [1]): 0.061 ± 0.017 mole fraction
melting point: 87 to 89 °C

CCCCCCCCCCCCCCC(=O)C(=O)N[C@@H](CCCC)COCC(=O)OCC [Compound 13, (S)-Ethyl 2-(2-(2-oxohexadecanamido)hexyloxy)acetate]
GIVA cPLA2 % inhibition (GIVA cPLA2 [1]): 52%
melting point: 41 to 43 °C

CCCCCCCCCCCCCCC(=O)C(=O)N[C@@H](CCCC)COCC(=O)OC(C)(C)C [Compound 17, (S)-tert-Butyl 2-(2-(2-oxohexadecanamido)hexyloxy)acetate]
GV sPLA2 % inhibition (GV sPLA2): 57%
GIVA cPLA2 % inhibition (GIVA cPLA2 [1]): 44%

CCCCCCCCCCCCCCC(=O)C(=O)N[C@@H](CCCC)COCC(=O)O [Compound 18, (S)-2-(2-(2-oxohexadecanainido)hexyloxy)acetic Acid]
Effect on AA release (in words) (RAW 264.7 macrophages; RAW 264.7 macrophages): significant reduction of AA release
IC50 (RAW 264.7 macrophages; [4]): 2 µM
inhibition at 25 µM (RAW 264.7 macrophages; [3]): 68%
inhibition at 0.091 mole fraction (GV sPLA2): < 25%
GIVA cPLA2 X1(50) (GIVA cPLA2 [1]): 0.017 mole fraction and 0.017 ± 0.002 mole fraction
melting point: 64 to 66 °C

CCC(=O)C(=O)NCCCC(=O)O [Compound 19]
Effect on AA release (in words) (RAW 264.7 macrophages; RAW 264.7 macrophages): significant reduction of AA release
IC50 (RAW 264.7 macrophages; [5]): 25 µM
IC50 (RAW 264.7 macrophages; [4]): ~25 µM
inhibition at 25 µM (RAW 264.7 macrophages; [3]): 52 ± 5%

CCNC(=O)OC[C@@H](CCC(=O)OC)NC(=O)C(=O)CC [Compound 23]
Inhibition of GIVA cPLA2 (in words) (GIVA cPLA2 [2]): inhibit GIVA cPLA2 to a high extent, though not selectively

CCOC(=O)CCCNC(=O)C(=O)CC [Compound 24]
Inhibition of GIVA cPLA2 (in words) (GIVA cPLA2 [2]): inhibit GIVA cPLA2 to a high extent, though not selectively

CCC(=O)C(=O)N[C@H](CCC(=O)O)CC(C)C [Compound 25]
Effect on AA release (in words) (RAW 264.7 macrophages; RAW 264.7 macrophages): significant reduction of AA release
IC50 (RAW 264.7 macrophages; [5]): 25 µM
IC50 (RAW 264.7 macrophages; [4]): ~25 µM
inhibition at 25 µM (RAW 264.7 macrophages; [3]): 62 ± 5%

CCC[C@@H](CCC(=O)O)NC(=O)C(=O)CC [Compound 26]
Effect on AA release (in words) (RAW 264.7 macrophages; RAW 264.7 macrophages): significant reduction of AA release
IC50 (RAW 264.7 macrophages; [5]): 25 µM
IC50 (RAW 264.7 macrophages; [4]): ~25 µM
inhibition at 25 µM (RAW 264.7 macrophages; [3]): 79 ± 0.5%

CCC[C@@H](CCC(=O)OC)NC(=O)C(=O)CC [Compound 27]
Inhibition of GIVA cPLA2 (in words) (GIVA cPLA2 [2]): inhibit GIVA cPLA2 to a high extent, though not selectively

CCC[C@@H](/C=C/C=C/C(=O)O)NC(=O)C(=O)CC [Compound 28]
inhibition at 25 µM (RAW 264.7 macrophages; [3]): 6 ± 10%

CCC[C@@H](/C=C/C(=O)OC)NC(=O)C(=O)CC [Compound 29]
Inhibition of GIVA cPLA2 (in words) (GIVA cPLA2 [2]): inhibit GIVA cPLA2 to a high extent, though not selectively

CCC[C@@H](/C=C/C(=O)O)NC(=O)C(=O)CC [Compound 30]
Effect on AA release (in words) (RAW 264.7 macrophages; RAW 264.7 macrophages): significant reduction of AA release
IC50 (RAW 264.7 macrophages; [5]): 25 µM
IC50 (RAW 264.7 macrophages; [4]): ~25 µM
inhibition at 25 µM (RAW 264.7 macrophages; [3]): 74 ± 8%

CCC(=O)C(=O)N[C@@H](C)CCC(=O)OC(C)(C)C [Compound 31]
Inhibition of GIVA cPLA2 (in words) (GIVA cPLA2 [2]): inhibit GIVA cPLA2 to a high extent, though not selectively

CCC[C@@H](CCCC(=O)O)NC(=O)C(=O)CC [Compound 35]
Effect on AA release (in words) (RAW 264.7 macrophages; RAW 264.7 macrophages): significant reduction of AA release
IC50 (RAW 264.7 macrophages; [5]): 7 µM
IC50 (RAW 264.7 macrophages; [4]): 7 µM
